{"source": "paper PMC10904284", "about": "(iScience, 2024)", "molecular_target": "CLso STP (Candidatus Liberibacter solanacearum, UniProt A0A094YYW1)", "sequence (A0A094YYW1 1-207)": "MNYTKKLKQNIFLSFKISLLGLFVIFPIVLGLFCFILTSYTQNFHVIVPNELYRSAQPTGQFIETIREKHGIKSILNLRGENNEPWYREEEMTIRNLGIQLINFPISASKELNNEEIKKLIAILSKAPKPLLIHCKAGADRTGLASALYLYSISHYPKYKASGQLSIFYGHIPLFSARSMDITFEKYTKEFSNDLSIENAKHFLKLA", "format": "binding", "data": [{"substance": "Glucose 6-phosphate [G6P]", "values": [{"measurement": "Ka", "result": 17.58, "unit": "M⁻¹ s⁻¹"}]}]}
